Target: T1, N-terminal HiBiT tagged BCL6 (Homo sapiens, UniProt P41182)
T1 construct: expressed in transfected cells; host or cells: HT1080 (ATCC CCL-121), stably transduced with lentivirus pLV-UBC-N-HiBiT-BCL6-PGK-puro
Assay: HiBiT based degradation assay
Type: cell-based
Details: HT1080 cells expressing N-terminal HiBiT tagged BCL6, 5 hours of incubation; for Ymin (5 hr): BCL6 degradation normalized with DMSO control; for DC50: four-parameter logistic model, read-out: EC50 (5 hr)
How it was run: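 Degradation measured by luminescence from the Nano-Glo HiBiT lytic reagent (15 min, room temperature), normalized to DMSO controls and fitted to a four-parameter curve.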

Row | SMILES | Ymin (5 hr) | DC50 [nM]
1 | CNC(=O)COc1cc2cc(Nc3nc(N4CCN(C(=O)N5CCN(c6ccc7c(C8CCC(=O)NC8=O)nn(C)c7c6)CC5)CC4)ncc3Cl)cnc2n(C(C)C)c1=O (centres unmarked) [Compound 219, 2-[[6-[[5-chloro-2-[4-[4-[3-(2,6-dioxo-3-piperidyl)-1-methyl-indazol-6-yl]piperazine-1-carbonyl]piperazin-1-yl]pyrimidin-4-yl]amino]-1-isopropyl-2-oxo-1,8-naphthyridin-3-yl]oxy]-N-methyl-acetamide] | +++ (30% ≤ Ymin < 50%) | < 10
2 | CNC(=O)COc1cc2cc(Nc3nc(N4CCN(C(=O)N5CCC(c6ccc7c(C8CCC(=O)NC8=O)nn(C)c7c6)CC5)CC4)ncc3Cl)cnc2n(C(C)C)c1=O (centres unmarked) [Compound 220, 2-[[6-[[5-chloro-2-[4-[4-[3-(2,6-dioxo-3-piperidyl)-1-methyl-indazol-6-yl]piperidine-1-carbonyl]piperazin-1-yl]pyrimidin-4-yl]amino]-1-isopropyl-2-oxo-1,8-naphthyridin-3-yl]oxy]-N-methyl-acetamide] | +++ (30% ≤ Ymin < 50%) | < 10
3 | CNC(=O)COc1cc2cc(Nc3nc(N4CC5(CCC(Nc6c(F)ccc7c(C8CCC(=O)NC8=O)nn(C)c67)CC5)C4)ncc3Cl)cnc2n(C(C)C)c1=O (centres unmarked) [Compound 222, 2-[[6-[[5-chloro-2-[7-[[3-(2,6-dioxo-3-piperidyl)-6-fluoro-1-methyl-indazol-7-yl]amino]-2-azaspiro[3.5]nonan-2-yl]pyrimidin-4-yl]amino]-1-isopropyl-2-oxo-1,8-naphthyridin-3-yl]oxy]-N-methyl-acetamide] | ++ (50% ≤ Ymin < 70%) | 10 to 100
4 | CNC(=O)COc1cc2cc(Nc3nc(N4CCN(C(=O)N5CCN(c6cccc7c(C8CCC(=O)NC8=O)nn(C)c67)CC5)CC4)ncc3Cl)cnc2n(C(C)C)c1=O (centres unmarked) [Compound 223, 2-[[6-[[5-chloro-2-[4-[4-[3-(2,6-dioxo-3-piperidyl)-1-methyl-indazol-7-yl]piperazine-1-carbonyl]piperazin-1-yl]pyrimidin-4-yl]amino]-1-isopropyl-2-oxo-1,8-naphthyridin-3-yl]oxy]-N-methyl-acetamide] | ++++ (Ymin < 30%) | < 10
5 | CNC(=O)COc1cc2cc(Nc3nc(N4CCN(C(=O)N5CCC(c6cccc7c(C8CCC(=O)NC8=O)nn(C)c67)CC5)CC4)ncc3Cl)cnc2n(C(C)C)c1=O (centres unmarked) [Compound 224, 2-[[6-[[5-chloro-2-[4-[4-[3-(2,6-dioxo-3-piperidyl)-1-methyl-indazol-7-yl]piperidine-1-carbonyl]piperazin-1-yl]pyrimidin-4-yl]amino]-1-isopropyl-2-oxo-1,8-naphthyridin-3-yl]oxy]-N-methyl-acetamide] | +++ (30% ≤ Ymin < 50%) | < 10
6 | CNC(=O)COc1cc2cc(Nc3nc(N4CCC(OC5CCN(c6cccc7c(C8CCC(=O)NC8=O)nn(C)c67)CC5)CC4)ncc3Cl)cnc2n(C(C)C)c1=O (centres unmarked) [Compound 225, 2-[[6-[[5-chloro-2-[4-[[1-[3-(2,6-dioxo-3-piperidyl)-1-methyl-indazol-7-yl]-4-piperidyl]oxy]-1-piperidyl]pyrimidin-4-yl]amino]-1-isopropyl-2-oxo-1,8-naphthyridin-3-yl]oxy]-N-methyl-acetamide] | ++++ (Ymin < 30%) | 10 to 100
7 | CNC(=O)COc1cc2cc(Nc3nc(N4CCC(O[C@H]5C[C@H](N6CCN(c7ccc8c(C9CCC(=O)NC9=O)nn(C)c8c7)CC6)C5)CC4)ncc3Cl)cnc2n(C(C)C)c1=O (some centres unmarked) [Compound 226a, 2-((6-((5-chloro-2-(4-((1r,3r)-3-(4-(3-(2,6-dioxopiperidin-3-yl)-1-methyl-1H-indazol-6-yl)piperazin-1-yl)cyclobutoxy)piperidin-1-yl)pyrimidin-4-yl)amino)-1-isopropyl-2-oxo-1,2-dihydro-1,8-naphthyridin-3-yl)oxy)-N-methylacetamide] | +++ (30% ≤ Ymin < 50%) | < 10
